The values that follow are results of earlier work, collected in patent publication US8592371B2, “Aminotetrahydropyrans as dipeptidyl peptidase-IV inhibitors for the treatment or prevention of diabetes” (Merck Sharp & Dohme Corp, priority 2008, dated 2013).

Data set [1] relates to cardiac allograft. The following applies: rats; from day 7 to day 14; cited from earlier work.
The subject of data set [2] is hematopoiesis. The following applies: mouse, cyclophosphamide-induced neutropenia; cited from earlier work.
The target of data set [3] is DPP-4 (Homo sapiens (Human), UniProt P27487). The following applies: cited from earlier work.
Sequence of DPP-4 (P27487 39-766, species assumed): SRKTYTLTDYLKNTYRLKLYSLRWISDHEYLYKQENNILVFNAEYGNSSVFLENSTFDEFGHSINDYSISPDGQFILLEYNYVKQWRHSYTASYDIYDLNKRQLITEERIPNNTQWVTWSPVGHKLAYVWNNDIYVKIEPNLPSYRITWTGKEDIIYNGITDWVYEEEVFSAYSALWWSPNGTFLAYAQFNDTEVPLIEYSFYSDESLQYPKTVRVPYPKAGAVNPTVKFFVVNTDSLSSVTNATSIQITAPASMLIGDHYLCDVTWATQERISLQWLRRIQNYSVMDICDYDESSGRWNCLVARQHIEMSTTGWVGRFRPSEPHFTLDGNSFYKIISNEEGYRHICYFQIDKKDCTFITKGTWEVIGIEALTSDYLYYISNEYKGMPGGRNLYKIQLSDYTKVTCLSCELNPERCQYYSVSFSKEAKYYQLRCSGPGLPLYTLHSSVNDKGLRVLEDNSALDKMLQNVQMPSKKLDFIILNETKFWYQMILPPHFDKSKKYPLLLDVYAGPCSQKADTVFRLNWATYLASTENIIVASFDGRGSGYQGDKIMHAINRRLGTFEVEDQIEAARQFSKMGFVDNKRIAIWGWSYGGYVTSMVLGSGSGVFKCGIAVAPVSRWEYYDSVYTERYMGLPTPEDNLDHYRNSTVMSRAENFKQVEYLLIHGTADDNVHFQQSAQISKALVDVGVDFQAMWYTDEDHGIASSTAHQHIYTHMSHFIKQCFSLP

As to `CC(C)N1CCC(c2ccccc2)(c2ccccc2)CC1` [Prodipine, Pro-Pro-diphenyl-phosphonate], in data set [1], the cardiac allograft survival result is “double”.
Turning to `CC(C)[C@H](N)C(=O)N1CCC[C@H]1B(O)O` [Val-Boro-Pro], the hematopoiesis entry in data set [2] is given as “stimulated hematopoiesis”.
Regarding diprotin A, in data set [3], the “degradation of GRF in plasma to GRF[3-44]” value was “prevented”.
